The EC50 is the concentration giving half of the maximal effect. Higher therefore signals lower potency in that assay.

For the experiment, the target named is human GPR40 receptor (Homo sapiens, UniProt O14842). In words: IP1 accumulation measurements using the IPOne assay system in 1321N1 cells stably expressing human GPR40 receptor. In kind it is cell-based. As to conditions: stimulation 1 h at 37° C. The method, then:
IP1 accumulation measurements using the IPOne assay system—1321N1 cells stably expressing human GPR40 receptor (Euroscreen, Belgium) are seeded 24 h before the assay in white 384-well plates in culture medium containing 10% FCS, 1% Na-Pyruvate and 400 μg/mL G418. IP1 is assayed according to the manufacturer's description (Cisbio Bioassays, France). In brief, the assay is started by substitution of the culture medium by stimulation buffer (Hepes 10 mM, CaCl2 1 mM, MgCl2 0.5 mM, KCl 4.2 mM, NaCl 146 mM, glucose 5.5 mM and LiCl 50 mM, pH 7.4). Cells are stimulated for 1 h at 37° C., 5% CO2 by addition of the compounds that are diluted in stimulation buffer containing LiCl. Assays are stopped by adding HTRF-conjugates (IP1-d2 and Anti-IP1 cryptate Tb) and lysis buffer, provided by the manufacturer. After an incubation time of 1 h at room temperature plates are measured using an EnVision™, Perkin Elmer. The obtained fluorescence ratios at 665/615 […] are then used to calculate the pEC50 values using Assay Explorer 3.3 Software (Accelrys, Inc.) by interpolation using an IP1 reference curve and subsequent sigmoidal curve fitting allowing for a variable hill slope.

Each structure is given as a SMILES string.

Chain of human GPR40 receptor (O14842 whole entry): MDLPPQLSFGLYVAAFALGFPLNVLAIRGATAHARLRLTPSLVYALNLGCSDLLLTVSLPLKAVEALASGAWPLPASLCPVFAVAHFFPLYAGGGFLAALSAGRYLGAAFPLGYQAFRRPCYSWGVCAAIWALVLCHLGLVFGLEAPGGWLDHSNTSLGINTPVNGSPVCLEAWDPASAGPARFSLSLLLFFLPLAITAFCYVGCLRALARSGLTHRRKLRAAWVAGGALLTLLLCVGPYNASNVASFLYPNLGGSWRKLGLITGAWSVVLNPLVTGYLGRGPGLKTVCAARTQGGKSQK

Compound `O=C(O)C[C@@H]1COc2cc(O[C@@H]3CCc4c3ccc(C(F)(F)F)c4CN3CCCCCC3)ccc21` [Example 19, {(S)-6-[(R)-4-Azepan-1-ylmethyl-5-trifluoromethyl-indan-1-yloxy]-2,3-dihydro-benzofuran-3-yl}-acetic acid] displayed an EC50 of 7 nM.

For the compound `COC(=O)N1CCN(Cc2c(C(F)(F)F)ccc3c2CC[C@H]3Oc2ccc3c(c2)OC[C@H]3CC(=O)O)CC1` [Example 17, {(S)-6-[(R)-4-(4-Methoxycarbonyl-piperazin-1-ylmethyl)-5-trifluoromethyl-indan-1-yloxy]-2,3-dihydro-benzofuran-3-yl}-acetic acid], the EC50 turned out to be 4 nM.

`O=C(O)C[C@@H]1COc2cc(O[C@@H]3CCc4c3ccc(C(F)(F)F)c4CN3CCc4nocc4C3)ccc21` [Example 34, {(S)-6-[(R)-4-(6,7-Dihydro-isoxazolo[4,3-c]pyridin-5-ylmethyl)-5-trifluoromethyl-indan-1-yloxy]-2,3-dihydro-benzofuran-3-yl}-acetic acid] showed an EC50 of 3 nM.

In turn, `CC1(C)CN(Cc2c(C(F)(F)F)ccc3c2CC[C@H]3Oc2ccc3c(c2)OC[C@H]3CC(=O)O)CCO1` [Example 23, {(S)-6-[(R)-4-(2,2-Dimethyl-morpholin-4-ylmethyl)-5-trifluoromethyl-indan-1-yloxy]-2,3-dihydro-benzofuran-3-yl}-acetic acid] returned an EC50 of 7 nM.

For `O=C(O)C[C@@H]1COc2cc(O[C@@H]3CCc4c3ccc(C(F)(F)F)c4CN3CCCC3)ccc21` [Example 4, {(S)-6-[(R)-4-Pyrrolidin-1-ylmethyl-5-trifluoromethyl-indan-1-yloxy]-2,3-dihydro-benzofuran-3-yl}-acetic acid], the midpoint of the response, the EC50, lay at 92 nM.

`CCOC(=O)N1CCN(Cc2c(C(F)(F)F)ccc3c2CC[C@H]3Oc2ccc3c(c2)OC[C@H]3CC(=O)O)CC1` [Example 20, {(S)-6-[(R)-4-(4-Ethoxycarbonyl-piperazin-1-ylmethyl)-5-trifluoromethyl-indan-1-yloxy]-2,3-dihydro-benzofuran-3-yl}-acetic acid] came in with an EC50 of 9 nM.

As for `CC(=O)N1CCN(Cc2c(C(F)(F)F)ccc3c2CC[C@H]3Oc2ccc3c(c2)OC[C@H]3CC(=O)O)CC1` [Example 16, {(S)-6-[(R)-4-(4-Acetyl-piperazin-1-ylmethyl)-5-trifluoromethyl-indan-1-yloxy]-2,3-dihydro-benzofuran-3-yl}-acetic acid], the EC50 amounted to 16 nM.

Regarding `O=C(O)C[C@@H]1COc2cc(O[C@@H]3CCc4c3ccc(C(F)(F)F)c4CN3CCOCC3)ccc21` [Example 1, {(S)-6-[(R)-4-Morpholin-4-ylmethyl-5-trifluoromethyl-indan-1-yloxy]-2,3-dihydro-benzofuran-3-yl}-acetic acid], the EC50 was found to be 3 nM.

Compound `C[C@@H]1CN(Cc2c(C(F)(F)F)ccc3c2CC[C@H]3Oc2ccc3c(c2)OC[C@H]3CC(=O)O)C[C@H](C)O1` [Example 18, {(S)-6-[(R)-4-(cis-2,6-Dimethyl-morpholin-4-ylmethyl)-5-trifluoromethyl-indan-1-yloxy]-2,3-dihydro-benzofuran-3-yl}-acetic acid] displayed an EC50 of 11 nM.

The compound `O=C(O)C[C@@H]1COc2cc(O[C@@H]3CCc4c3ccc(C(F)(F)F)c4CN3CC4CC4C3)ccc21` (stereo partly drawn) [Example 12, {(S)-6-[(R)-4-(3-Aza-bicyclo[3.1.0]hex-3-ylmethyl)-5-trifluoromethyl-indan-1-yloxy]-2,3-dihydro-benzofuran-3-yl}-acetic acid] came in with a half-maximal effective concentration (EC50) of 20 nM.

In turn, `O=C(O)C[C@@H]1COc2cc(O[C@@H]3CCc4c3ccc(C(F)(F)F)c4CN3CCc4ncccc4C3)ccc21` [Example 28, {(S)-6-[(R)-4-(7,8-Dihydro-[1,6]naphthyridin-6-ylmethyl)-5-trifluoromethyl-indan-1-yloxy]-2,3-dihydro-benzofuran-3-yl}-acetic acid] showed an EC50 of 4 nM.

For the origin of these results see patent US8927531B2, “Indanyloxydihydrobenzofuranylacetic acids” (Boehringer Ingelheim International GmbH, priority 2013, dated 2015).
